Patent US6943191B1, “Disubstituted lavendustin A analogs and pharmaceutical composition comprising the analogs” (The United States of America as represented by the …, priority 1998, dated 2005)
Where two headings read alike, the source gives them in different places.

Assays:
[1] = tested on: panel of approximately 60 different human tumor cell lines; assay: National Cancer Institute drug screen, mean-graph parameters; type: cell-based; conditions: mean over cell line panel, two days exposure; for GI50: Homo sapiens, 48 h
Experimental: Compounds of the present invention also have been subjected to the drug screening procedure employed by the National Cancer Institute for the screening of drugs having possible anticancer utility. The screening procedure uses a diverse, disease-oriented panel consisting of approximately 60 different human tumor cell lines organized into disease-specific subpanels. The compounds of the present invention were tested over a range of concentrations for cytotoxic or growth-inhibitory effects against cell lines comprising the panel. The eight subpanels represented diverse histologies (leukemias, melanomas, and tumors of the lung, colon, kidney, breast, ovary, and brain).
Compounds of the present invention were tested over a period of two days. During this period the cells were continuously exposed to various concentrations of the compounds tested. The tests produced individual dose-responses, one for each cell line (i.e. one for each example), and the data were represented in dose-response curves. The data provided by these dose response curves were summarized using a mean-graph format.
To produce data for the mean-graph format, a compound concentration that produced a target level response was calculated for each cell line. Three different response parameters were evaluated. The first response parameter was the growth inhibition (“GI50”). GI50 is the concentration of compounds made according to the present invention that produced an apparent 50% decrease in the number of tumor cells relative to the appropriate control (not exposed to the compounds of the present invention) at the end of the incubation period.
The second response parameter was the total growth inhibition (“TGI”). TGI is the concentration at which the number of tumor cells remaining at the end of the incubation period substantially equal the number of tumor cells existing at the start of the incubation period.
The third response parameter was the lethal concentration (“LC50”) LC50 is the concentration of compounds made according to the present invention that caused an apparent 50 percent reduction in the number of tumor cells […] at the start of the incubation period.
In a typical GI50 mean graph, the relative position of the vertical reference line along the horizontal concentration axis was obtained by averaging the negative log10GI50 values for all the cell lines tested against the compound. Horizontal bars were then plotted for the individual negative log10GI50 values of each cell line relative to the vertical reference line. The GI50 graph thus provided a characteristic fingerprint for the compound, displaying the individual cell lines that are proportionately more sensitive than average (bars extending to the right of the reference line) or proportionately less sensitive than average (bars extending to the left of the reference line). The length of a bar was proportional to the difference between the log10GI50 value obtained with the particular cell line and the mean (represented by the vertical reference line).
Similar mean graphs were prepared for the TGI and LC50 response parameters.

p210^bcr-abl = target: T1, p210^bcr-abl (Homo sapiens, UniProt P00519); assay: Inhibition of in vitro auto-phosphorylation of p210^bcr-abl, immune-complex kinase assay; type: biochemical; conditions: immune complex kinase assay, 3 experiments, read-out: Enzyme Assays IC50 (μM) p210bcl-abl in vitro phosphorylation
T1 construct: immune complexes containing ^32P-labeled p210^bcr-abl were collected on protein Sepharose beads; BCR (N-terminal part of the breakpoint cluster region protein, natural fusion partner); endogenous in cells; host or cells: K562 cells (lysate, immunoprecipitated on Protein A-Sepharose); the other entry of the earlier key: BCR (P11274, Breakpoint cluster region protein)
Experimental: Inhibition of in vitro auto-phosphorylation of p210^bcr-abl in immune-complex kinase assays were conducted as follows. K562 cell line cells were washed twice in […]. The washed cells were lysed in PLC lysis buffer 150 mM HEPES (pH 7.5), 150 mM NaCl, 10% (v/v) glycerol, 1% (v/v) Triton X-100, 1.5 mM MgCl2, 1 mM EGTA. 10 μg/ml leupeptin, 10 μg/ml aprotinin, 1 mM sodium orthovanadate. 10 mM sodium pyrophosphate, 100 mM sodium fluoride and 1 mM phenylmethyl sulfonyl fluoride| Cell lysates were centrifuged at 100,000 g for 15 minutes and the supernatant collected. Protein concentrations of the clarified supernatants were determined by the Bradford Protein Assay, and the same quantity of protein was immunoprecipitated from control (vehicle-treated) and drug-treated cells. Cell lysates were incubated and gently rocked at 4° C. for 4 hours overnight with antibodies. Immune complexes were collected by incubation with Protein A-Sepharose beads (Pharmacia, Piscataway N.J.) and immune complexes (beads) were washed three times with HNTG buffer [20 mM HEPES (pH 7.5), 10% glycerol, 0.1% Triton X-100, 150 mM NaCl and 1 mM sodium orthovanadate] to remove unbound material. Bound proteins were boiled for 5 minutes in 2×SDS sample buffer (63 mM Tris-HCl, ph 6.8; 10% glycerol; 2% SDS; 0.0025% bromophenol blue: and […] 2 mercaptoethanol) prior to SDS-PAGE. Proteins were resolved on 4-20% gradient mini gels from Novex Experimental Technology (San Diego, Calif.).
After SDS-PAGE, proteins were electrophoretically transferred onto Immobilon polyvinylidene difluoride (PVDF) membranes (Millipore, Bedford, Mass.) at 250 mA for 4 hours at 4° C. using 2× Tris glycine transfer buffer (50 mM Tris, glycine), 20% methanol and 0.1% SDS. Residual binding sites on the membrane were blocked by incubation in TTS (20 mM Tris pH 7.4, 0.9% NaCl and 0.05% Tween 20) containing 3% BSA overnight at 4° C. or for 4 hours at room temperature. Blots were incubated for 1-1.5 hours with TTS containing 0.3% BSA with 1 μg/ml of mouse anti-P-Tyr, 2 μg/ml of mouse anti-Grb2 or 1 μg/ml of rabbit anti-She antibody. Blots were washed three times for 6 minutes each with TTS containing 0.3% BSA and probed with a 1:1000 dilution of rabbit anti-mouse antibody or directly with [^125I]Protein A (Amersham, Arlington Heights, Ill.) in blocking solutions. Proteins were visualized by autoradiography (exposed for 1-2 days at −70° C.).
The p210^bcr-abl, protein immunoprecipitates were washed twice with HTNG buffer Immunoprecipitates were washed once with 50 mM Tris (pH 7.0) and distributed to each reaction in 20 μl of 20 mM PIPES [piperazine-N,N′-bis(ethanesulfonic acid)] (pH 7.0)−20 mM MnCl2. Then, 10 μl of compounds made according to the present invention at desired concentrations from working stock solution prepared in 20 mM PIPEs (pH 7.0)−20 mM MnCl2 were added to each reaction tube. Reactions were initiated with the addition of 10 μl of [γ-^33P]ATP (10 μCi per sample, 3000 Ci/mmol; Amersham), incubated for 20 minutes at 30° C., stopped by addition of 10 μl of 5×SDS sample buffer, heated at 100° C. for 5 minutes, and analyzed on 4-20% SDS-PAGE and by autoradiography.
To assess the effect of drugs added in vitro on the state of p210^bcr-abl in the immune complexes, K562 cells were labeled with ^32P, lysed in PLC buffer and immune complexes containing ^32P-labeled p210^bcr-abl were collected on protein Sepharose beads and beads were washed four times with HNTG buffer. Immune complexes were divided into several tubes in 30 μl of PLC buffer in the presence of compounds made as described herein.

K562 cells = assay: K562 cell culture and growth assay, 6 day MTT; type: cell-based, human; conditions: K562, 6 days, 4 or more experiments
Experimental: This example describes the procedure used for cell culture and growth assays. Human leukemia, Philadelphia-chromosome-positive CML cell line K562 was obtained from ATCC (Rockville, Md.). Cells were cultured in RPMI medium containing 10% fetal calf serum, 2 mM glutamine, 100 units/ml of penicillin and 100 μg/ml streptomycin Cells (2×10^3 cells/well) were incubated with increasing concentrations of compounds of the present invention dissolved in DMSO in a final volume of 200 μl in 96-well plates. Control cells were incubated with medium containing identical concentrations of the DMSO solvent. Growth of K562 cells was quantitated after 6 days by ability of living cells to reduce the yellow dye 3-(4,5-dimethylthiazolyl)-2,5-diphenyltetrazolium bromide (MTT) to a blue formazan product. Further information concerning this procedure is provided by Mossman T., “Rapid Colorimetric Assay for Cellular Growth and Survival—Application to Proliferation and Cytotoxicity Assays,” J. Immunol. Methods 1983, 65:55-63, which is incorporated herein by reference.

[2] = Table 9, read-out: Tumor cell Mean log GI50 (converted)
[3] = Homo sapiens, 144 h, Table 9, mean ± S.E., read-out: IC50 (μM) 6dMTT
[4] = Homo sapiens, 144 h, Table 8, mean+S.E., read-out: IC50 (μM) 6 dMTT

T1 sequence (P00519 with tags, fused parts or gaps): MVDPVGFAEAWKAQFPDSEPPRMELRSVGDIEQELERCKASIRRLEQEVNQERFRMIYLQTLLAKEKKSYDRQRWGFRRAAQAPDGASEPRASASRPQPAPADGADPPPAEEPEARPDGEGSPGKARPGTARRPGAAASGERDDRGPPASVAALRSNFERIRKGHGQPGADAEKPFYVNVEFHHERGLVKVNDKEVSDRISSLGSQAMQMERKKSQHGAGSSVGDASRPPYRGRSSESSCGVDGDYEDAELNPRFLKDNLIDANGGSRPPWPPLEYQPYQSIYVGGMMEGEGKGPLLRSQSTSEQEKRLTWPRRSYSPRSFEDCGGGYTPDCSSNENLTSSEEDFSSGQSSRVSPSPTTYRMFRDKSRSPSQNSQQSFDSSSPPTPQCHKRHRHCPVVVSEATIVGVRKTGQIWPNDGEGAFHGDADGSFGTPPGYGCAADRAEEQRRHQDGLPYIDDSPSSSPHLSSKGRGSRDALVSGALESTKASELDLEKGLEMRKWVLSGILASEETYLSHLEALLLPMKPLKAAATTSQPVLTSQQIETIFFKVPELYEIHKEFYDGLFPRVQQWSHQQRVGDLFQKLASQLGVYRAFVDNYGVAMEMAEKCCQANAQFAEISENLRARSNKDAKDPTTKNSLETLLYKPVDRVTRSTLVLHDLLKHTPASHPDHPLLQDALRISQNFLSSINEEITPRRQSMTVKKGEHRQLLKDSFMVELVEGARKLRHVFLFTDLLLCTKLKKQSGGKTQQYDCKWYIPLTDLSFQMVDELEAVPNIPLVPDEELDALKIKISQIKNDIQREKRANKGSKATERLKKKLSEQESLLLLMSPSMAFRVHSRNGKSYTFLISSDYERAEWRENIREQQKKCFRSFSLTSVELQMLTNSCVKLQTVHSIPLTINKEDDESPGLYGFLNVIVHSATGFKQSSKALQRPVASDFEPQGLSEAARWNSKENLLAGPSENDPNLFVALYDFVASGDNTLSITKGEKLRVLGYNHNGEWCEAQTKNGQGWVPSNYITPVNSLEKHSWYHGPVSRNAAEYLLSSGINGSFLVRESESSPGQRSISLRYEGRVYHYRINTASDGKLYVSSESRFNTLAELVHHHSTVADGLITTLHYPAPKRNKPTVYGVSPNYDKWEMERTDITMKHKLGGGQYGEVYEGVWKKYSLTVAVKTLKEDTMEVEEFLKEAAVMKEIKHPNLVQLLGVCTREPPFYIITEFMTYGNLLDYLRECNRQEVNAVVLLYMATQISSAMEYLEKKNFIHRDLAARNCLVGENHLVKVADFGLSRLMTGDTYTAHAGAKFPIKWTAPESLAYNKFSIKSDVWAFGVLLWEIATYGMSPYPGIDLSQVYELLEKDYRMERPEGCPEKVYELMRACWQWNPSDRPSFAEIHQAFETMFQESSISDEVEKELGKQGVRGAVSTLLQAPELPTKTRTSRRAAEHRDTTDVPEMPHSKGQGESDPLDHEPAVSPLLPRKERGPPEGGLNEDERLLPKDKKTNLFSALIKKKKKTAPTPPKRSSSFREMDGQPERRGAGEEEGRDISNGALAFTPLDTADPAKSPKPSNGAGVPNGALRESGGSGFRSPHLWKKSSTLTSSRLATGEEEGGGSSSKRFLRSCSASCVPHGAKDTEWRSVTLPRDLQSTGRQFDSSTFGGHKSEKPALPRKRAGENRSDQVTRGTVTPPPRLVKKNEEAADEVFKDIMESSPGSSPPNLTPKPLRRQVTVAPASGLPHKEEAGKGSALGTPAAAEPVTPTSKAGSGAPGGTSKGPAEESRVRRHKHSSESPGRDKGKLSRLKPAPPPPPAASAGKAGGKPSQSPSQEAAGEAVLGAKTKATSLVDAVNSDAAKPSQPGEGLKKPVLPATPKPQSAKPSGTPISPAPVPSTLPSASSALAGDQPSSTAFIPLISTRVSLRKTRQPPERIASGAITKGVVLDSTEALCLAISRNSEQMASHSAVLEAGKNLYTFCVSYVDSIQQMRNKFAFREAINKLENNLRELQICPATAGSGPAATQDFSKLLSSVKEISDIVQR

SMILES | GI50 [1, 2] [µM] | Tumor Cell Mean log TGI ([1]; Table 9) | IC50 (p210^bcr-abl; Table 9, mean ± S.E.) [µM] | IC50 (K562 cells; [3]) [µM] | Tumor Cell Mean log GI50 ([1]; Table 8) | Tumor Cell Mean log TGI ([1]; Table 8) | IC50 (p210^bcr-abl; Table 8, mean+S.E.) [µM] | IC50 (K562 cells; [4]) [µM] | other results
CC(C)(C)OC(=O)c1ccc(NCC2=CC(=O)C=CC2=O)cc1 [COOC(CH3)3 / H / 2,5-quinoyl] | 8.13 | −4.67 | 25.9 ± 9.02 | 25.4 ± 1.88 |  |  |  |  | 
CC(C)OC(=O)c1ccc(NCC2=CC(=O)C=CC2=O)cc1 [Compound 21, 4′-isopropylbenzoate-1′-N-p-quinone-2-methyl amine] | 26.9 | −4.55 | 13.7 ± 5.78 | 17.4 ± 1 |  |  |  |  | 
O=C1C=CC(=O)C(CNc2ccc(C(=O)OCc3ccccc3)cc2)=C1 [COOCH2—C6H6 / H / 2,5-quinoyl] | 5.01 | −4.78 | 8.75 ± 1.25 | 22.8 ± 18 |  |  |  |  | 
COC(=O)c1cc(NCc2cc(O)cc(Br)c2O)ccc1Cl [4′-chloro-5′-methylbenzoate-1′-N-3-bromo-2,5-dihydroxybenzylamine] |  | −4.43 | 3.56 ± 0.53 |  |  |  |  |  | Tumor Cell Mean log GI50 ([1]; Table 9): −4.86; IC50 (K562 cells; Table 9, mean ± S.E., read-out: IC50 (μM) 6dMTT): 8.9 ± 0.5 µM
CC(=O)c1ccc(NCc2cc(O)ccc2O)cc1 [Compound 17, 4′-acetophenone-1′-N-2,5-dihydroxybenzylamine] |  |  |  |  | −4.72 | −4.25 | 1.03 | 13 | 
COC(=O)c1ccc(NCC2=CC(=O)C=CC2=O)cc1O [Compound 20, 3′-hydroxy-4′-methylbenzoate-1′-N-p-quinone-2-methyl amine] | 17 | −4.36 | 5.15 ± 1.01 | 17 ± 0.3 |  |  |  |  | 
Oc1ccc(O)c(CNc2ccc(C(O)C(F)(F)F)cc2)c1 (stereo not shown) [CH(OH)CF3 / H / H, 4′-(trifluoromethylethanol)-1′-N-2,5-dihydroxybenzylamine] |  |  |  |  | −4.82 | −4.34 | 0.57 | 14.3 | 
O=C(O)c1ccc(CCc2cc(O)ccc2O)cc1O |  |  |  |  |  |  |  |  | Tumor Cell Mean log GI50 ([1]; Table 10): −4.06; Tumor Cell Mean log TGI ([1]; Table 10): −4.01; IC50 (p210^bcr-abl; Table 10, mean ± S.E.): 13 ± 1.03 µM; IC50 (K562 cells; Table 10, mean ± S.E., read-out: IC50 (μM) 6dMTT): 33.4 ± 4.8 µM
COP(=O)(OC)c1ccc(NCc2cc(O)ccc2O)cc1 [O═P(OCH3)2 / H / H, 4′-phenylphosphonate-1-N-2,5-dihydroxybenzylamine] |  |  |  |  | −4.61 | −4.23 | 0.49 | 9.83 | 
CC(C)OC(=O)c1ccc(NCC2=CC(=O)C=CC2=O)cc1Cl [Compound 26, 3′-chloro-4′-isopropylbenzoate-1′-N-p-quinone-2-methyl amine] | 9.55 | −4.41 | 3.01 ± 1.75 | 27.7 ± 0.6 |  |  |  |  | 
NC(=O)c1ccc(NCc2cc(O)ccc2O)cc1 [CONH2 / H / H] |  |  |  |  | −4.53 | −4.26 | 4.23 | 20.9 | 
COC(=O)c1ccc(NCC2=CC(=O)C=CC2=O)cc1 [COOCH3 / H / 2,5-quinoyl] | 2.51 | −4.8 | 15.9 ± 2.91 | 15.1 ± 1.28 |  |  |  |  | 
CC(C)N(C(=O)c1ccc(NCc2cc(O)ccc2O)cc1)C(C)C [CON[CH(CH3)2]2 / H / H, 4′-diisopropylbenzamide-N-2,5-dihydroxybenzylamine] |  |  |  |  | −4.88 | −4.36 | 2.36 | 18.2 | 
COC(=O)c1ccc(CCc2cc(O)ccc2O)cc1 |  |  |  |  |  |  |  |  | GI50 ([1]; Table 10, read-out: Tumor Cell Mean log GI50 (converted)): 10 µM; Tumor Cell Mean log TGI ([1]; Table 10): −4.43; IC50 (p210^bcr-abl; Table 10, mean ± S.E.): 2.64 ± 0.99 µM; IC50 (K562 cells; Homo sapiens, 144 h, Table 10, mean ± S.E., read-out: IC50 (μM) 6dMTT): 18.5 ± 5.62 µM
COC(=O)c1ccc(NCc2cc(O)ccc2O)cc1O [COOCH3 / OH / H] |  |  |  |  | −5.23 | −4.70 | 6.44 | 17.7 | 
COC(=O)c1ccc(NCC2=C(Br)C(=O)C=CC2=O)cc1Cl [Compound 25, 3′-chloro-4′-methylbenzoate-1′-N-2-bromo-p-quinone-3-methyl amine] | 21.9 | −4.34 | 2.35 ± 0.41 | 17.5 ± 0.1 |  |  |  |  | 
